Laboratory results reported in US20080233561A1, “Method for Measuring Cytopathic Effect Due to Viral Infection in Cells Using Electric Cell-Substrate Impedance Sensing” (UNIVERSITY OF LOUISVILLE RESEARCH FOUNDATION, INC., priority 2005, published 2008).

System: PR8 influenza A virus (influenza/A/PR/8/34 virus)
Type: cell-based

Cl.N [NH4Cl, ammonium chloride]
CPE in influenza-infected cells, observed with ECIS: Inhibition of CPE in influenza-infected cells
